Test results: patent US20240425491A1, “HETEROARYL COMPOUNDS USEFUL IN THE TREATMENT OF COGNITIVE DISORDERS” (University College Cardiff Consultants Limited, priority 2021, published 2024)

Columns and labels:
[1] = molecular target: T1, human α5β3γ2 GABAARs in mouse L(tk−) cells (Homo sapiens, UniProt P18507+P31644); test: In vitro electrophysiological recording assay (α5-GABAAR relative efficacy), QPatch; type: cell-based
T1 construct: expressed in transfected cells; host or cells: mouse L(tk−) cells, dexamethasone-inducible vector pMSGneo
T1 sequence (P31644 32-462): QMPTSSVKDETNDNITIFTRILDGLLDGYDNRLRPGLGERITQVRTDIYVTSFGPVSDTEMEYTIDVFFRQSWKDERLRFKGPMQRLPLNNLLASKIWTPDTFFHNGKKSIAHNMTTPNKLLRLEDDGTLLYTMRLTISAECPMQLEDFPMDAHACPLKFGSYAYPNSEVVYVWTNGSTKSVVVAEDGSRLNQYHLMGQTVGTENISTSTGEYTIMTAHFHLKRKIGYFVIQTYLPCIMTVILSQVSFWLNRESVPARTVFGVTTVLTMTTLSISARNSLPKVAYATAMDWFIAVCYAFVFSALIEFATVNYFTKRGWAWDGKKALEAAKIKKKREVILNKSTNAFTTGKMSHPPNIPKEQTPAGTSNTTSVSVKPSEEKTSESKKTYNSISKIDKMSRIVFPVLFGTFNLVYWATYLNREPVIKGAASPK
T1 sequence (P28472 26-473 partner): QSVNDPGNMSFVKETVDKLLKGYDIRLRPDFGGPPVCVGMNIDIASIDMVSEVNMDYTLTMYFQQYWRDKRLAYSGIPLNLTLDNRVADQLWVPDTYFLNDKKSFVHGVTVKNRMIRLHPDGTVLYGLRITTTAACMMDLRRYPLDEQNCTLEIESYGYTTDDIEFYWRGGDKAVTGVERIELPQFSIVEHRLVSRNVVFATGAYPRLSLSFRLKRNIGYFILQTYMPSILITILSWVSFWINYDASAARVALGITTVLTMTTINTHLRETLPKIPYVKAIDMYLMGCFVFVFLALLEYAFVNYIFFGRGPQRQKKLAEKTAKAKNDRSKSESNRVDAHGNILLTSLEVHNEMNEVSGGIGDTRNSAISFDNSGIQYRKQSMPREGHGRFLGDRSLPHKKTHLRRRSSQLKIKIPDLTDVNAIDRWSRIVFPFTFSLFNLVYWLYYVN
T1 sequence (P18507 40-475): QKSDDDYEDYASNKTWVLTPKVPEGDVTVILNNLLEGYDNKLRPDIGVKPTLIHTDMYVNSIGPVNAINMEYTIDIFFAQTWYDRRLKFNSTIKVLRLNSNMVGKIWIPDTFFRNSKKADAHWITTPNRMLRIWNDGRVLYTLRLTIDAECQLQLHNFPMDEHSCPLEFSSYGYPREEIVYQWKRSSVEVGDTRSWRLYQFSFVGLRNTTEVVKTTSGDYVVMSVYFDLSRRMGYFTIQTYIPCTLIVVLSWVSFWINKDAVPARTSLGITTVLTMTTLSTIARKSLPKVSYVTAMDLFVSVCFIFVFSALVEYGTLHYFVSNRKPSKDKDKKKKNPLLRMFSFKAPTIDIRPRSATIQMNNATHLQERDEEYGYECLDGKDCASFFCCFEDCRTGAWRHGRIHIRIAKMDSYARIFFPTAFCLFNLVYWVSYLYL
How it was run: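 Whole-cell QPatch recordings at 20-22° C, −65 mV holding, in dexamethasone-induced (1 μM, 24 h) L(tk−) cells. Compound pre-applied ≥1 min, then co-applied with GABA EC10-20; percentage change in leak-corrected peak current, taken at ≥100× Ki, normalised to DMCM efficacy; 0.1% DMSO final.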

[2] = molecular target: T2, human α5β3γ2L GABAA receptors in HEK293 cells (Homo sapiens, UniProt P18507+P31644); test: In vitro electrophysiological recording assay (α5-GABAAR relative efficacy), SyncroPatch; type: cell-based; conditions: Conc 0.1 μM; GABA EC10-20
T2 construct: expressed in transfected cells
T2 sequence (P31644 32-462): as the sequence (P31644 32-462) above
T2 sequence (P28472 26-473 partner): as the sequence (P28472 26-473 partner) above
T2 sequence (P18507 40-475): as the sequence (P18507 40-475) above
How it was run: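 HEK293 cells stably expressing the receptor, automated whole-cell patch clamp at −80 mV, room temperature (20-22° C). Compound pre-incubated 1-2 min, then co-applied with GABA EC10-20; % change in peak current vs GABA alone (leak-subtracted). Tested generally at ≥100× Ki and normalised to DMCM efficacy as relative efficacy.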

GABA-elicited whole-cell current in the presence of compound ([1]; 1 μM, QPatch, same cell before and after addition, FIG. 1): smaller current
α5-GABAAR Relative Efficacy (to DMCM), Qpatch ([1]; Conc 1 μM, GABA EC10-20): −0.91
α5-GABAAR Relative Efficacy (to DMCM), SyncroPatch [2]: −1.11
SMILES: COc1nc(-n2ccnc2)ccc1NC(=O)c1c(-c2ccccc2)noc1C [Example 1, N-(6-Imidazol-1-yl-2-methoxy-3-pyridyl)-5-methyl-3-phenyl-isoxazole-4-carboxamide]
